Source: ChEMBL document CHEMBL1158694, “Terphenylquinone inhibitors of the src protein tyrosine kinase from Stilbella sp” (J Nat Prod, 2005)
pIC50: −log10 of the molar value.

These compounds were tested against Proto-oncogene tyrosine-protein kinase Src (Homo sapiens, UniProt P12931) (assay: Inhibition of His-tagged human src kinase expressed in Sf9 cells by DELFIA assay).
Sequence of Proto-oncogene tyrosine-protein kinase Src (P12931 2-536 limits assumed): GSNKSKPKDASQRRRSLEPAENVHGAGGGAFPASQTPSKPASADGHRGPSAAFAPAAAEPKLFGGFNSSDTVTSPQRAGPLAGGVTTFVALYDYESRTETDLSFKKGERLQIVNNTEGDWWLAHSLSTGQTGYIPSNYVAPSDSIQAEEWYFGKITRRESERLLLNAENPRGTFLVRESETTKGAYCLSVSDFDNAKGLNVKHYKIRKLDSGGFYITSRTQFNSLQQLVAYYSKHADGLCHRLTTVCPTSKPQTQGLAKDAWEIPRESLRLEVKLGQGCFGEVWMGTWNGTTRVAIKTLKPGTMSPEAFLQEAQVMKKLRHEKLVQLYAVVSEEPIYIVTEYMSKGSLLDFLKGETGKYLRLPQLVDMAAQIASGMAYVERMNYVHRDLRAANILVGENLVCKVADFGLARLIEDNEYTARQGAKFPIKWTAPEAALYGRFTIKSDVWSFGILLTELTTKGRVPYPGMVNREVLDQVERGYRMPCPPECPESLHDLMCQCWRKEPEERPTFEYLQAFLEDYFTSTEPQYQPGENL

Row | SMILES | pIC50
1 | O=C1C(O)=C(c2ccccc2)C(=O)C(O)=C1c1ccccc1 | < 4.30
2 | O=C1C(c2ccccc2)=C(O)C(=O)c2c1oc1cc(O)c(O)cc21 | 4.63

Continued, values first:

Row | pIC50 | SMILES
3 | 4.84 | O=C1C(O)=C(c2ccc(O)c(O)c2)C(=O)C(O)=C1c1ccccc1
4 | 5.41 | O=C1C(O)=C(c2cc(O)c(O)c(O)c2)C(=O)C(O)=C1c1ccccc1
5 | 4.43 | O=C1C(O)=C(c2ccc(O)cc2)C(=O)C(O)=C1c1ccccc1
